Data published in PubChem BioAssay AID330 (DTP/NCI, 2004).
Where “and” joins values, the source holds several entries; their conditions need not be identical. Equal entries are not always repeated. Inconclusive results and toxic doses are left out. Square brackets hold non-standard residues; d marks the D form. Peptide text beside a SMILES is read from it. * marks the point of attachment. ξ: configuration not given here. Boc = CC(C)(C)OC(=O)*; ξP = O=C(O)C1CCCN1

System: P388 leukemia ip, CD2F1 mice, survival T/C
Test: NCI In Vivo Anticancer Drug Screen. Data for tumor model P388 Leukemia (intraperitoneal) in CD2F1 (CDF1) mice
Conditions: endpoint: median survival time, higher = longer survival
Outline: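 Mice carrying the transplanted tumor received test compound or vehicle. Survival was recorded in each group, and the value is the treated-group measurement divided by that of the vehicle-treated control group.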

[1] = dose: 60.0 mg/kg/injection, schedule: Q01DX005 (ip), vehicle: Klucel (hydroxypropylcellulose) (HPC)
[2] = dose: 120.0 mg/kg/injection, schedule: Q01DX005 (ip), vehicle: Klucel (hydroxypropylcellulose) (HPC)
[3] = dose: 50.0 mg/kg/injection, schedule: Q01DX005 (ip), vehicle: saline with Tween-80
[4] = dose: 50.0 mg/kg/injection, schedule: Q01DX005 (ip), vehicle: Klucel (hydroxypropylcellulose) (HPC)
[5] = dose: 100.0 mg/kg/injection, schedule: Q01DX005 (ip), vehicle: Klucel (hydroxypropylcellulose) (HPC)
[6] = dose: 200.0 mg/kg/injection, schedule: Q01DX005 (ip), vehicle: Klucel (hydroxypropylcellulose) (HPC)
[7] = dose: 50.0 mg/kg/injection, schedule: Q01DX009 (ip), vehicle: saline
[8] = dose: 100.0 mg/kg/injection, schedule: Q01DX009 (ip), vehicle: saline
[9] = dose: 200.0 mg/kg/injection, schedule: Q01DX009 (ip), vehicle: saline
[10] = dose: 25.0 mg/kg/injection, schedule: Q01DX009 (ip), vehicle: other
[11] = dose: 50.0 mg/kg/injection, schedule: Q01DX009 (ip), vehicle: other
[12] = dose: 100.0 mg/kg/injection, schedule: Q01DX009 (ip), vehicle: other
[13] = dose: 60.0 mg/kg/injection, schedule: Q01DX005 (ip), vehicle: saline
[14] = dose: 120.0 mg/kg/injection, schedule: Q01DX005 (ip), vehicle: saline
[15] = dose: 240.0 mg/kg/injection, schedule: Q01DX005 (ip), vehicle: saline
[16] = dose: 60.0 mg/kg/injection, schedule: Q01DX005 (ip), vehicle: saline with Tween-80
[17] = dose: 120.0 mg/kg/injection, schedule: Q01DX005 (ip), vehicle: saline with Tween-80
[18] = dose: 240.0 mg/kg/injection, schedule: Q01DX005 (ip), vehicle: saline with Tween-80
[19] = dose: 3.13 mg/kg/injection, schedule: Q01DX009 (ip), vehicle: other
[20] = dose: 6.25 mg/kg/injection, schedule: Q01DX009 (ip), vehicle: other
[21] = dose: 12.5 mg/kg/injection, schedule: Q01DX009 (ip), vehicle: other

With CN(C)C1=NC(N(C)C)=C2C=C(C(C)(C)C)C=C12 the T/C [1] was 101 % of control and the T/C [2] was 101 % of control.
In the case of CCCCN(CCCC)CCNc1ccc(C)c2sc3ccc(Cl)cc3c(=O)c12, the T/C (dose: 12.5 mg/kg/injection, schedule: Q01DX005 (ip), vehicle: saline with Tween-80) is reported as 88 % of control, the T/C (dose: 25.0 mg/kg/injection, schedule: Q01DX005 (ip), vehicle: saline with Tween-80) is reported as 88 % of control and the T/C [3] is reported as 89 % of control.
For CCOc1ccc(/C=N/NC(=O)c2c(-c3ccccc3)noc2C)cc1, the T/C [3] was 86 % of control, the T/C (dose: 100.0 mg/kg/injection, schedule: Q01DX005 (ip), vehicle: saline with Tween-80) was 91 % of control and the T/C (dose: 200.0 mg/kg/injection, schedule: Q01DX005 (ip), vehicle: saline with Tween-80) was 97 % of control.
In the case of CN(C)C(=O)SC1=C(c2c(Cl)cccc2Cl)C(=O)c2ccccc21, the T/C [4] is reported as 108 % of control and 112 % of control, the T/C [5] is reported as 99 % of control and 112 % of control and the T/C [6] is reported as 121 % of control and 122 % of control.
With COC1OCN(Cc2ccccc2)CC1(C)C (stereo not given) the T/C (dose: 50.0 mg/kg/injection, schedule: Q01DX009 (ip), vehicle: saline with Tween-80) was 108 % of control and the T/C (dose: 100.0 mg/kg/injection, schedule: Q01DX009 (ip), vehicle: saline with Tween-80) was 120 % of control.
For O=S(=O)(O)O.[Cu+2].[NH2-].[NH2-].[NH2-].[NH2-], the T/C (dose: 5.0 mg/kg/injection, schedule: Q04DX002 (ip), vehicle: saline) was 99 % of control, the T/C (dose: 6.25 mg/kg/injection, schedule: Q01DX009 (ip), vehicle: saline) was 86 % of control and the T/C (dose: 12.5 mg/kg/injection, schedule: Q01DX009 (ip), vehicle: saline) was 93 % of control.
In the case of CC(CSc1ccccc1)C(Sc1ccccc1)Sc1ccccc1 (stereo not given), the T/C [7] is reported as 102 % of control, the T/C [8] is reported as 98 % of control and the T/C [9] is reported as 106 % of control.
CON(Cc1ccc(C(=O)NC(C)C)cc1)Cc1ccc(C(=O)NC(C)C)cc1 was tested, and the T/C [10] was 94 % of control, the T/C [11] was 100 % of control and the T/C [12] was 92 % of control.
With CCCC(O)C(C)[N+](=O)[O-] (stereo not given) the T/C (dose: 100.0 mg/kg/injection, schedule: Q04DX003 (ip), vehicle: saline) was 100 % of control and the T/C (dose: 200.0 mg/kg/injection, schedule: Q04DX003 (ip), vehicle: saline) was 95 % of control.
In the case of CC(=O)Cc1cc(-c2cc(CC(C)=O)on2)no1, the T/C [13] is reported as 103 % of control, the T/C [14] is reported as 99 % of control and the T/C [15] is reported as 100 % of control.
With CN1C2=CC3(OC2C(C)(C)c2ccccc21)N(C)c1ccccc1C3(C)C (stereo not given) the T/C [1] was 93 % of control, the T/C [2] was 92 % of control and the T/C (dose: 240.0 mg/kg/injection, schedule: Q01DX005 (ip), vehicle: Klucel (hydroxypropylcellulose) (HPC)) was 93 % of control.
With CCOC(=O)C(Cc1ccccc1C(=O)NC)c1ccccc1 (stereo not given) the T/C (dose: 100.0 mg/kg/injection, schedule: Q01DX009 (ip), vehicle: saline sonified) was 95 % of control, the T/C (dose: 200.0 mg/kg/injection, schedule: Q01DX009 (ip), vehicle: saline sonified) was 95 % of control and the T/C (dose: 400.0 mg/kg/injection, schedule: Q01DX009 (ip), vehicle: saline sonified) was 95 % of control.
For CNC(=O)OCc1c(COC(=O)NC)c(C)n(-c2ccc(F)cc2)c1C, the T/C (dose: 25.0 mg/kg/injection, schedule: Q01DX009 (ip), vehicle: saline) was 155 % of control.
For O=C(Nc1ccc(Nc2ccccc2)cc1)Nc1cc([N+](=O)[O-])ccc1Cl, the T/C [16] was 90 % of control, the T/C [17] was 98 % of control and the T/C [18] was 103 % of control.
In the case of CSc1nc2[nH]cnc(=S)c2[nH]1, the T/C (dose: 6.25 mg/kg/injection, schedule: Q04DX003 (ip), vehicle: saline with Tween-80) is reported as 90 % of control, the T/C (dose: 12.5 mg/kg/injection, schedule: Q04DX003 (ip), vehicle: saline with Tween-80) is reported as 90 % of control and the T/C (dose: 25.0 mg/kg/injection, schedule: Q04DX003 (ip), vehicle: saline with Tween-80) is reported as 109 % of control.
O=c1oc(-c2ccccc2O)ns1 was tested, and the T/C (dose: 100.0 mg/kg/injection, schedule: Q01DX009 (ip), vehicle: Klucel (hydroxypropylcellulose) (HPC)) was 98 % of control, the T/C (dose: 200.0 mg/kg/injection, schedule: Q01DX009 (ip), vehicle: Klucel (hydroxypropylcellulose) (HPC)) was 102 % of control and the T/C (dose: 400.0 mg/kg/injection, schedule: Q01DX009 (ip), vehicle: Klucel (hydroxypropylcellulose) (HPC)) was 97 % of control.
With COc1cc2cc(c1Cl)NC(=O)CC(OC(=O)C(C)N(C)C(=O)C(C)C)C1(C)OC1C(C)C1CC(O)(NC(=O)O1)C(OC)/C=C/C=C(C)C2OC (stereo not given) the T/C (dose: 8.0 micrograms/kg/injection, schedule: Q01DX009 (ip), vehicle: distilled water + Tween-80 + alcohol) was 161 % of control, the T/C (dose: 16.0 micrograms/kg/injection, schedule: Q01DX009 (ip), vehicle: distilled water + Tween-80 + alcohol) was 155 % of control and 179 % of control and the T/C (dose: 32.0 micrograms/kg/injection, schedule: Q01DX009 (ip), vehicle: distilled water + Tween-80 + alcohol) was 154 % of control and 184 % of control. For the same compound, the T/C (dose: 64.0 micrograms/kg/injection, schedule: Q01DX009 (ip), vehicle: distilled water + Tween-80 + alcohol) was 86 % of control.
CC(CO)CCC1OC2CC3C4CC=C5C=CCCC5(C)C4CCC3(C)C2C1C (stereo not given) was tested, and the T/C (dose: 2.25 mg/kg/injection, schedule: Q01DX005 (ip), vehicle: Klucel (hydroxypropylcellulose) (HPC)) was 107 % of control, the T/C (dose: 4.5 mg/kg/injection, schedule: Q01DX005 (ip), vehicle: Klucel (hydroxypropylcellulose) (HPC)) was 104 % of control and the T/C (dose: 9.0 mg/kg/injection, schedule: Q01DX005 (ip), vehicle: Klucel (hydroxypropylcellulose) (HPC)) was 97 % of control. For the same compound, the T/C (dose: 18.0 mg/kg/injection, schedule: Q01DX005 (ip), vehicle: Klucel (hydroxypropylcellulose) (HPC)) was 96 % of control and the T/C (dose: 36.0 mg/kg/injection, schedule: Q01DX005 (ip), vehicle: Klucel (hydroxypropylcellulose) (HPC)) was 124 % of control.
COc1ccc(C2(c3ccc(OC)cc3)N=NC3(C)CC32)cc1 (stereo not given) was tested, and the T/C (dose: 100.0 mg/kg/injection, schedule: Q01DX001 (ip), vehicle: saline with Tween-80) was 92 % of control, the T/C (dose: 200.0 mg/kg/injection, schedule: Q01DX001 (ip), vehicle: saline with Tween-80) was 89 % of control and the T/C (dose: 400.0 mg/kg/injection, schedule: Q01DX001 (ip), vehicle: saline with Tween-80) was 86 % of control.
For [N-]=[N+]=CC(=O)Oc1ccc([N+](=O)[O-])cc1, the T/C [19] was 100 % of control, the T/C [20] was 98 % of control and the T/C [21] was 104 % of control. The T/C [10] was 98 % of control and 97 % of control and the T/C [11] was 89 % of control.
For COc1ccc2c(c1)c(COC(C)=O)c(COC(C)=O)c[n+]2[O-], the T/C [4] was 98 % of control, the T/C [5] was 97 % of control and the T/C [6] was 94 % of control.
With N#CCCC12CCC(=O)N1Cc1ccccc1C2=O (stereo not given) the T/C [13] was 105 % of control, the T/C [14] was 123 % of control and the T/C [15] was 123 % of control.
With COC(=O)C1CCCN1C(=O)CNC(=O)OC(C)(C)C (stereo not drawn) (Boc-Gly-[ξP]-OMe) the T/C [7] was 105 % of control, the T/C [8] was 99 % of control and the T/C [9] was 99 % of control. The T/C (dose: 400.0 mg/kg/injection, schedule: Q01DX009 (ip), vehicle: saline) was 90 % of control.
In the case of O=C(Nc1cc(-c2ccccc2)nn1-c1ccccc1)c1ccccc1F, the T/C [16] is reported as 103 % of control, the T/C [17] is reported as 103 % of control and the T/C [18] is reported as 111 % of control.
In the case of COC1OC2COC(c3ccccc3)OC2C2OC(c3ccccc3)OC12 (stereo not given), the T/C (dose: 1.56 mg/kg/injection, schedule: Q01DX009 (ip), vehicle: other) is reported as 116 % of control, the T/C [19] is reported as 106 % of control and the T/C [20] is reported as 119 % of control. For the same compound, the T/C [21] was 113 % of control, the T/C [10] was 113 % of control and 87 % of control and the T/C [11] was 91 % of control. The T/C [12] was 91 % of control, the T/C (dose: 200.0 mg/kg/injection, schedule: Q01DX009 (ip), vehicle: other) was 89 % of control and the T/C (dose: 400.0 mg/kg/injection, schedule: Q01DX009 (ip), vehicle: other) was 92 % of control.
With O=C1C(N2CC2)=C(N2CC2)C(=O)C(N2CC2)=C1N1CC1 the T/C (dose: 1.8 micrograms/kg/injection, schedule: Q01DX009 (ip), vehicle: saline) was 110 % of control, the T/C (dose: 2.7 micrograms/kg/injection, schedule: Q01DX009 (ip), vehicle: saline) was 115 % of control and the T/C (dose: 4.0 micrograms/kg/injection, schedule: Q01DX009 (ip), vehicle: saline) was 112 % of control.
